Assay results published in patent US9889146B2, “Benzoxaborole compounds and uses thereof” (priority 2012, dated 2018).
Values after ≈ are worked out from the molar mass of the structure shown. Where two headings read alike, the source gives them in different places.

Columns and labels:
Klebsiella spp. (KPC) = test: microbe, parasite or virus in culture; assay type: cell-based; conditions: Klebsiella
E. coli (ESBL) = test: microbe, parasite or virus in culture; assay type: cell-based; conditions: Escherichia coli
[1] = tested on: Enterobacter cloacae (WT); test: microbe, parasite or virus in culture; assay type: cell-based; conditions: 202 isolates, read-out: MIC90
Proteus vulgaris (WT) = test: microbe, parasite or virus in culture; assay type: cell-based; conditions: Proteus vulgaris (WT), 41 isolates; read-out: MIC90
S. marcescens (AmpC) = test: microbe, parasite or virus in culture; assay type: cell-based; conditions: Serratia marcescens
[2] = tested on: Enterobacter aerogenes (WT); test: microbe, parasite or virus in culture; assay type: cell-based; conditions: Klebsiella aerogenes; Enterobacter aerogenes (WT), 199 isolates; read-out: MIC90
[3] = tested on: Enterobacter cloacae (AmpC); test: microbe, parasite or virus in culture; assay type: cell-based; conditions: Enterobacter cloacae
Providencia spp.(all) = test: microbe, parasite or virus in culture; assay type: cell-based; conditions: Providencia spp.(all), 68 isolates; read-out: MIC90
Proteus mirabilis (WT) = test: microbe, parasite or virus in culture; assay type: cell-based; conditions: Proteus mirabilis (WT), 235 isolates; read-out: MIC90
E. coli (WT) = test: microbe, parasite or virus in culture; assay type: cell-based; conditions: Escherichia coli; E. coli (WT), 214 isolates; read-out: MIC90
[4] = tested on: Morganella morganii (AmpC); test: microbe, parasite or virus in culture; assay type: cell-based; conditions: Morganella morganii
Klebsiella spp. (ESBL) = test: microbe, parasite or virus in culture; assay type: cell-based; conditions: Klebsiella
[5] = tested on: Citrobacter freundii (AmpC); test: microbe, parasite or virus in culture; assay type: cell-based; conditions: Citrobacter freundii
Enterobacteriaceae = test: organism not typed; assay type: cell-based; conditions: Enterobacteriaceae, 2029 isolates; read-out: MIC90
Klebsiella spp. (WT) = test: microbe, parasite or virus in culture; assay type: cell-based; conditions: Klebsiella spp. (WT), 159 isolates; read-out: MIC90
K. pneumoniae = conditions: up regulation of an AcrAB efflux pump; Ruzin et al. AAC 2005; cited from earlier work
[6] = tested on: Enterobacter aerogenes (AmpC); test: microbe, parasite or virus in culture; assay type: cell-based; conditions: Klebsiella aerogenes
P. aeruginosa = test: In vitro activity against P. aeruginosa clinical isolates; assay type: cell-based; conditions: P. aeruginosa, 2,008 clinical isolates; GSK2251052 based on potential susceptible breakpoint of ≦4 μg/mL
Description: GSK2251052 was tested for activity against P. aeruginosa, and its activity was compared to other antibiotics of known activity. The results are shown below in Tables 2a and 2b. Of 2,008 clinical isolates tested (from 2009-2010 subjects, of which 40% were from North America) greater than 90% were susceptible to GSK2251052 based on a potential susceptible breakpoint of ≦4 μg/mL.

P. aeruginosa ATCC 27853 = test: Spontaneous frequency of resistance; assay type: cell-based; conditions: 24 h
Description: (§1) Spontaneous Resistance Frequency was determined in vitro for GSK2251052 and the resistance mutants in E. coli ATCC 25922, K. pneumoniae ATCC 13883, and P. aeruginosa ATCC 27853 strains were characterized. GSK2251052 was prepared as described in U.S. Pat. No. 7,816,344 (the entire contents of which are hereby incorporated by reference herein). LB broth, Mueller Hinton II broth (adjusted), and Difco noble agar were obtained from Becton Dickinson (Cockeysville, Md., USA). M9 minimal broth containing 1×M9 salt, 0.5 μg/ML thiamine, 1 mM MgSO4, 0.1 mM CaCl2, 2% glucose, was obtained from Teknova (Hollister, Calif., USA). Antibacterial agents ciprofloxacin, ceftazidime, chloramphenicol, gentamycin, kanamycin, polymixin B, tobramycin and trimethoprim, and amino acids were obtained from Sigma Chemicals (St. Louis, Mo., USA). Strains were obtained from ATCC (Manassas, Va., USA).
(§2) Selection of resistance to GSK2251052 was attempted by spreading various amounts of bacteria onto MHBII noble agar plates containing 4×MIC (minimum inhibitory concentration) or 10×MIC of GSK2251052. Colonies were counted after 24 hours and 48 hours incubation at 37° C. The resistance of these colonies was confirmed by their ability to grow on plates containing GSK2251052 at either 4× or 10×MIC. Frequency of resistance was determined by dividing the number of resistant mutants by the total number of cells plated as determined by plating dilutions of the overnight culture on LB plates.

E. coli ATCC 25922 = test: Spontaneous frequency of resistance; assay type: cell-based; conditions: 24 h
Description: as §1, §2

K. pneumoniae ATCC 13883 = test: Spontaneous frequency of resistance; assay type: cell-based; conditions: 24 h
Description: as §1, §2

[7] = tested on: E. coli ATCC 25922, K. pneumoniae ATCC 13883 and P. aeruginosa ATCC 27853; test: MIC, three strains and their mutants summarised; assay type: cell-based; conditions: MIC in E. coli, P. aeruginosa and K. pneumoniae mutants versus wild-type
Description: as §1
Susceptibility tests were performed following the recommendations for aerobic bacteria (M7-A7) from the Clinical and Laboratories Standards Institute (CLSI).
Laboratory generated mutants resistant to GSK2251052 contain mutations in the editing domain of LeuRS. Six to ten GSK2251052 resistant colonies of E. coli ATCC 25922, K. pneumoniae ATCC 13883 and P. aeruginosa ATCC 27853 were selected for further analysis and their MICs to GSK2251052 were determined (Table 4-7).
GSK2251052 resistant mutants were not cross-resistant to commercial antibiotics.

[8] = tested on: P. aeruginosa ATCC 27853 wild type and mutants; test: MIC, wild type and GSK2251052 resistant mutants; assay type: cell-based; conditions: Pseudomonas aeruginosa
Outline: (§3)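 MICs were determined following CLSI M7-A7 recommendations for aerobic bacteria. Strains were E. coli ATCC 25922, K. pneumoniae ATCC 13883, P. aeruginosa ATCC 27853 and six to ten laboratory-selected GSK2251052-resistant colonies of each, carrying mutations in the LeuRS editing domain.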

[9] = tested on: E. coli ATCC 25922 wild type and mutants; test: MIC, wild type and GSK2251052 resistant mutants; assay type: cell-based; conditions: Escherichia coli
Outline: as §3

[10] = tested on: K. pneumoniae ATCC 13883 wild type and mutants; test: MIC, wild type and GSK2251052 resistant mutants; assay type: cell-based; conditions: Klebsiella pneumoniae
Outline: as §3

## CN(C)c1cc(NC(=O)CNC(C)(C)C)c(O)c2c1C[C@H]1C[C@H]3[C@H](N(C)C)C(O)=C(C(N)=O)C(=O)[C@@]3(O)C(O)=C1C2=O [Tigecycline]
Klebsiella spp. (KPC)
  MIC90: 2 µg/mL (≈ 3.41 µM)
E. coli (ESBL)
  MIC90: 0.5 µg/mL (≈ 0.854 µM)
[1]
  MIC90: 0.5 µg/mL (≈ 0.854 µM)
Proteus vulgaris (WT)
  MIC90: 2 µg/mL (≈ 3.41 µM)
S. marcescens (AmpC)
  MIC90: 2 µg/mL (≈ 3.41 µM)
[2]
  MIC90: 0.5 µg/mL (≈ 0.854 µM)
[3]
  MIC90: 4 µg/mL (≈ 6.83 µM)
Providencia spp.(all)
  MIC90: 4 µg/mL (≈ 6.83 µM)
Proteus mirabilis (WT)
  MIC90: 4 µg/mL (≈ 6.83 µM)
E. coli (WT)
  MIC90: 0.25 µg/mL (≈ 0.427 µM)
[4]
  MIC90: 4 µg/mL (≈ 6.83 µM)
Klebsiella spp. (ESBL)
  MIC90: 2 µg/mL (≈ 3.41 µM)
[5]
  MIC90: 2 µg/mL (≈ 3.41 µM)
Enterobacteriaceae
  MIC90: 2 µg/mL (≈ 3.41 µM)
Klebsiella spp. (WT)
  MIC90: 1 µg/mL (≈ 1.71 µM)
K. pneumoniae
  phenotype of resistant mutants: multidrug-resistant
[6]
  MIC90: 2 µg/mL (≈ 3.41 µM)

## CC(C)(O/N=C(\C(=O)N[C@@H]1C(=O)N2C(C(=O)[O-])=C(C[n+]3ccccc3)CS[C@H]12)c1csc(N)n1)C(=O)O [Ceftazidime]
Klebsiella spp. (KPC)
  MIC90: > 16 µg/mL
E. coli (ESBL)
  MIC90: > 16 µg/mL
[1]
  MIC90: ≤ 1 µg/mL
Proteus vulgaris (WT)
  MIC90: ≤ 1 µg/mL
S. marcescens (AmpC)
  MIC90: > 16 µg/mL
[2]
  MIC90: ≤ 1 µg/mL
P. aeruginosa
  % susceptible: 66.4%
[3]
  MIC90: > 16 µg/mL
Providencia spp.(all)
  MIC90: 8 µg/mL (≈ 14.6 µM)
Proteus mirabilis (WT)
  MIC90: ≤ 1 µg/mL
E. coli (WT)
  MIC90: ≤ 1 µg/mL
[4]
  MIC90: > 16 µg/mL
Klebsiella spp. (ESBL)
  MIC90: > 16 µg/mL
[5]
  MIC90: > 16 µg/mL
P. aeruginosa ATCC 27853; 4 X MIC
  Frequency of Resistance: 2 × 10^−7
P. aeruginosa ATCC 27853; 10 X MIC
  Frequency of Resistance: 2 × 10^−8
E. coli ATCC 25922; 4 X MIC
  Frequency of Resistance: <3 × 10^−9
E. coli ATCC 25922; 10 X MIC
  Frequency of Resistance: <3 × 10^−9
K. pneumoniae ATCC 13883; 4 X MIC
  Frequency of Resistance: 1 × 10^−8
K. pneumoniae ATCC 13883; 10 X MIC
  Frequency of Resistance: <4 × 10^−9
[7]
  cross-resistance of GSK2251052 resistant mutants: did not have any significant difference in MIC values than wild-type
Enterobacteriaceae
  MIC90: > 16 µg/mL
Klebsiella spp. (WT)
  MIC90: ≤ 1 µg/mL
[6]
  MIC90: > 16 µg/mL
[8]; ATCC27853, P wt., read-out: MICs
  MIC: 2 µg/mL (≈ 3.66 µM)
[8]; ATCC27853, read-out: MICs, mutant P 101
  MIC: 4 µg/mL (≈ 7.32 µM)
[8]; ATCC27853, read-out: MICs, mutant P106
  MIC: 2 µg/mL (≈ 3.66 µM)
[8]; ATCC27853, read-out: MICs, mutant P108
  MIC: 2 µg/mL (≈ 3.66 µM)
[9]; ATCC25922, E wt, read-out: MICs
  MIC: 0.5 µg/mL (≈ 0.915 µM)
[9]; ATCC25922, read-out: MICs, mutant E 101
  MIC: 0.5 µg/mL (≈ 0.915 µM)
[9]; ATCC25922, read-out: MICs, mutant E 102
  MIC: 0.5 µg/mL (≈ 0.915 µM)
[9]; ATCC25922, read-out: MICs, mutant E 107
  MIC: 0.5 µg/mL (≈ 0.915 µM)
[10]; ATCC13883, K wt., read-out: MICs
  MIC: 0.5 µg/mL (≈ 0.915 µM)
[10]; ATCC13883, read-out: MICs, mutant K 104
  MIC: 0.5 µg/mL (≈ 0.915 µM)
[10]; ATCC13883, read-out: MICs, mutant K 105
  MIC: 0.5 µg/mL (≈ 0.915 µM)
[10]; ATCC13883, read-out: MICs, mutant K 107
  MIC: 0.5 µg/mL (≈ 0.915 µM)
[10]; ATCC13883, read-out: MICs, mutant K 108
  MIC: 1 µg/mL (≈ 1.83 µM)
[10]; ATCC13883, read-out: MICs, mutant K 110
  MIC: 0.5 µg/mL (≈ 0.915 µM)
